The values below come from patent US7345049B2, “Phenylalanine derivatives” (Ajinomoto Co., Inc., priority 2003, dated 2008).

Counter-ions that a name gives are not always drawn.

In this test the target is T1, VCAM-1/α4β1 integrin binding (Homo sapiens, UniProt P05556+P13612).
T1 construct: Jurkat (ATCC TIB-152), known to express integrin α4β1; endogenous in cells; host or cells: Jurkat (ATCC TIB-152)
T1 sequence (P13612 34-1032): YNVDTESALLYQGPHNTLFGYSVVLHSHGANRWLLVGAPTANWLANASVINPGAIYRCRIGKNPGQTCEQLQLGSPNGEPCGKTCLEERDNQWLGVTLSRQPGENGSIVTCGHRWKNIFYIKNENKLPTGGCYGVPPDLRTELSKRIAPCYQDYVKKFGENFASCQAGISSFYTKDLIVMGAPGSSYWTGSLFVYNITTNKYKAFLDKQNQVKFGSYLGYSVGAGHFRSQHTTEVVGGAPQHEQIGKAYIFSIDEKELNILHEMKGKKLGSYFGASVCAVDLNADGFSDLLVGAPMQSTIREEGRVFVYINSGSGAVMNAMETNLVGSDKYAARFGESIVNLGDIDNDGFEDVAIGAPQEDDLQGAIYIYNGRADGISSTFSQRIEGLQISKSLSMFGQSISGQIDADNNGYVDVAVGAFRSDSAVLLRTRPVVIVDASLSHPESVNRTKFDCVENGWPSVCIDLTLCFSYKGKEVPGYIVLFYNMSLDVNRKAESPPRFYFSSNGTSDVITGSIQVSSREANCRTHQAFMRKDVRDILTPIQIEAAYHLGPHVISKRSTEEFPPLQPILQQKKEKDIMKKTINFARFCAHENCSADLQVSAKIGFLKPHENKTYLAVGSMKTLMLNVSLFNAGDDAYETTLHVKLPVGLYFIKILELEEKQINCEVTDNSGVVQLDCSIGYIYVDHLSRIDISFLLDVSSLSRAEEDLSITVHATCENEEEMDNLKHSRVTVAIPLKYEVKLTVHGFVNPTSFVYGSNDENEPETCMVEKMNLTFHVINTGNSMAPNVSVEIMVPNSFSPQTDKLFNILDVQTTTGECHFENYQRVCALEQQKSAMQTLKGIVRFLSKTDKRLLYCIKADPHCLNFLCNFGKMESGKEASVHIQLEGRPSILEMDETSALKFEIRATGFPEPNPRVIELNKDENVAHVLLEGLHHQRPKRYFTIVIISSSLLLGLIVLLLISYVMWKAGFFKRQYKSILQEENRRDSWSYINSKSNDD
T1 sequence (P05556 21-798): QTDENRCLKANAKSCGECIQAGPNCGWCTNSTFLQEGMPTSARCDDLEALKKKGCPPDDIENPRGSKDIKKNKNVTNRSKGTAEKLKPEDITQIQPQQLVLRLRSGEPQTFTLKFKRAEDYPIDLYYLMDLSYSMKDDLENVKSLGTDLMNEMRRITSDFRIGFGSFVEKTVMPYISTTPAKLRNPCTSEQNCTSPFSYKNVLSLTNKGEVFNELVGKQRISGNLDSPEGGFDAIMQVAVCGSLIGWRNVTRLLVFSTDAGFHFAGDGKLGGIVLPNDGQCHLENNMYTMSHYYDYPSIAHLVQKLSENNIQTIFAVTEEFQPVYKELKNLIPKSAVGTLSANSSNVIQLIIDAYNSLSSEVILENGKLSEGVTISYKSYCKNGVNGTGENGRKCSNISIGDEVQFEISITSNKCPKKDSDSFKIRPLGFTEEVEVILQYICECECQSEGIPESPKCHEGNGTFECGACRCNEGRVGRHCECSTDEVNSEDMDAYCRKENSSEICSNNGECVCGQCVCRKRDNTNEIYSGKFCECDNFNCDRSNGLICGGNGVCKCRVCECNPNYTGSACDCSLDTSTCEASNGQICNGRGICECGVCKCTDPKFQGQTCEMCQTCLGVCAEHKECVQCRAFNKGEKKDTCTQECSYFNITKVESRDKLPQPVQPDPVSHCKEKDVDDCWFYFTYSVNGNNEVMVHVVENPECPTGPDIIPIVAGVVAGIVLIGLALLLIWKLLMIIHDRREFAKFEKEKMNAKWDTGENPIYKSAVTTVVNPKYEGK
The test can be described thus: Assay of antagonistic activity to VCAM-1/α4β1 integrin binding under the existence of blood serum (Jurkat cell adhesion to VCAM-1/Fc). As to conditions: Jurkat cells, recombinant human VCAM-1/Fc, 50% human blood serum. In kind it is cell-based. Here is the method: Assay of Antagonistic Activity to VCAM-1/α4β1 Integrin Binding Under the Existence of Blood Serum
The capacity of a test substance antagonistic to the binding of cell strain of human T cells, Jurkat (ATCC TIB-152), known to express integrin α4β1, to VCAM-1 was determined.
Fifty μl/well of a solution (500 ng/ml) of recombinant human VCAM-1/Fc (R & D systems) diluted with buffer A (0.1 M NaHCO3, pH 9.6) was added to a 96-well microtiter plate (Nunc Maxisorp). After the incubation at 4° C. overnight and washing once with PBS, a buffer (buffer B) obtained by diluting Block Ace (Snow Brand Milk Products Co., Ltd.) with PBS to ½ concentration was added in an amount of 150 μl/well. After the incubation at room temperature for 2 hours, buffer B was removed and the plate was washed with PBS once.
Jurkat cells were washed with Dulbecco modified Eagle medium (SIGMA, hereinafter referred to as “DMEM”) once. Then, the cells were again suspended in a binding buffer (DMEM containing 20 mM HEPES, 0.1% BSA, 2 mM MnCl2 and 50% human blood serum (Sigma)) to become 1×10^6 cells/mL.
Sixty μl of a test substance of various concentrations obtained by the dilution with the binding buffer was added to a round-bottom, 96-well plate (IWAKI). Immediately thereafter, 60 μl of the Jurkat cells (1×10^6 cells/ml) were added thereto and shaken on a plate shaker (IKA-Labortechnik, IKA-SCHUTTLER MTS-4) at 1000 rpm for 10 seconds. In 120 μL of the cell suspension to which the test substance was added, each 100 μL thereof was transferred on the VCAM-1/Fc-coated plate and incubated in dark place at room temperature for 60 minutes. After the shaking on the plate shaker at 1000 rpm for 30 seconds, the solution was immediately removed. Then, the unbound cells were removed by washing them with PBS once. A buffer C (PBS containing 0.82% Triton X-100) was added to the plate in an amount of 70 μL/well. After the shaking on the plate shaker at 1000 rpm for 5 minutes, the bound Jurkat cells were lysed. After centrifuging the cells on a plate centrifuge (SIGMA 4-15C) at room temperature at 2500 rpm for 5 minutes, 50 μL of supernatant thereof was transferred to a 96-well microtiter plate (Nunc Maxisorp). Each 50 μL of Substrate Buffer (Promega, CytoTox 96 Non-Radioactive Cytotoxicity Assay) was added thereto, shaken on a plate shaker at 1000 rpm for 10 seconds and reacted in dark place at room temperature for 30 minutes. Then, each 50 μL of Stop Solution (Promega, CytoTox 96 Non-Radioactive Cytotoxicity Assay) was added thereto and shaken on a plate shaker at 1000 rpm for 10 seconds. […] The absorbance thus obtained detects an activity of lactate dehydrogenase (LDH) dissolved in the supernatant of each well. Namely, the absorbance is proportional to the number of remaining Jurkat cells on the plate via the binding to VCAM-1. The test was conducted in duplicate and the binding rate of each test substance in various concentrations was determined while the absorbance of the test substance-free well was determined to be 100% and the absorbance of the Jurkat-cell-free well was determined to be 0%. The concentration for the 50% inhibition of binding, IC50, was calculated.
A word on the IC50: it is the concentration that gives 50% inhibition. Consider `Cn1c(=O)n(-c2ccc(CC(NC(=O)c3c(Cl)cccc3Cl)C(=O)O)cc2)c(=O)c2cc(N3CCOCC3)ccc21` (stereo not drawn) [Example 1], for which the IC50 is 0.0017 µM.

With `CN1CCN(c2ccc3c(c2)c(=O)n(-c2ccc(C[C@H](NC(=O)c4c(Cl)cccc4Cl)C(=O)O)cc2)c(=O)n3C)CC1` [Example 2], the IC50 worked out at 0.0229 µM.

For the compound `CN(C)CCN(C)c1ccc2c(c1)c(=O)n(-c1ccc(C[C@H](NC(=O)c3c(Cl)cccc3Cl)C(=O)O)cc1)c(=O)n2C` [Example 4], the IC50 stood at 0.014 µM.

`CCN(CC)CCN(C)c1ccc2c(c1)c(=O)n(-c1ccc(C[C@H](NC(=O)c3c(Cl)cccc3Cl)C(=O)O)cc1)c(=O)n2C` [Example 5]: the half-maximal inhibitory concentration (IC50) amounted to 0.0108 µM.

`CN(C)C1CCN(c2ccc3c(c2)c(=O)n(-c2ccc(C[C@H](NC(=O)c4c(Cl)cccc4Cl)C(=O)O)cc2)c(=O)n3C)C1` (stereo partly drawn) [Example 6]: the IC50 is 0.0089 µM.

For `COCCNc1ccc2c(c1)c(=O)n(-c1ccc(C[C@H](NC(=O)c3c(Cl)cccc3Cl)C(=O)O)cc1)c(=O)n2C` [Example 10], the IC50 is 0.0155 µM.

Take `CN(C)CCN(C)c1cc2c(cc1F)c(=O)n(-c1ccc(C[C@H](NC(=O)c3c(Cl)cccc3Cl)C(=O)O)cc1)c(=O)n2C` [Example 13]: the IC50 was 0.0055 µM.

For `CCN(CC)CCN(C)c1cc2c(cc1F)c(=O)n(-c1ccc(C[C@H](NC(=O)c3c(Cl)cccc3Cl)C(=O)O)cc1)c(=O)n2C` [Example 14], the IC50 turned out to be 0.0058 µM.

For `CN1CCN(C)c2cc3c(cc21)c(=O)n(-c1ccc(C[C@H](NC(=O)c2c(Cl)cccc2Cl)C(=O)O)cc1)c(=O)n3C` [Example 17], the IC50 is 0.0229 µM.

As to `Cn1ncc2c(=O)n(-c3ccc(C[C@H](NC(=O)c4c(Cl)cccc4Cl)C(=O)O)cc3)c(=O)n(C)c21` [Example 18], the IC50 was determined as 0.0117 µM.

`CCNc1ccc2c(=O)n(-c3ccc(C[C@H](NC(=O)c4c(Cl)cccc4Cl)C(=O)O)cc3)c(=O)n(C)c2c1` [Example 19]: the 50% inhibitory concentration (IC50) worked out at 0.0235 µM.

Regarding `Cn1c(=O)n(-c2ccc(C[C@H](NC(=O)c3c(Cl)cccc3Cl)C(=O)O)cc2)c(=O)c2ccc(CN3CCCC3)cc21` [Example 35, N-(2,6-dichlorobenzoyl)-4-[1-methyl-7-(pyrrolidine-1-ylmethyl)-2,4-quinazoline-dione-3-yl]-L-phenylalanine trifluoroacetate], the IC50 came out at 0.0079 µM.

In the case of `Cn1c(=O)n(-c2ccc(C[C@H](NC(=O)c3c(Cl)cccc3Cl)C(=O)O)cc2)c(=O)c2cc(S(C)(=O)=O)ccc21` [Example 38, N-(2,6-dichlorobenzoyl)-4-[1-methyl-6-(methylsulfonyl)-2,4-quinazoline-dione-3-yl]-L-phenylalanine], the IC50 is 0.0124 µM.

`Cn1c(=O)n(-c2ccc(C[C@H](NC(=O)c3c(Cl)cccc3Cl)C(=O)O)cc2)c(=O)c2ccc(N3CCOCC3)cc21` [Example 39, N-(2,6-dichlorobenzoyl)-4-[1-methyl-7-(morpholine-4-yl)-2,4-quinazoline-dione-3-yl]-L-phenylalanine trifluoroacetate]: the half-maximal inhibitory concentration (IC50) amounted to 0.0065 µM.

Take `Cn1c(=O)n(-c2ccc(C[C@H](NC(=O)c3c(Cl)cccc3Cl)C(=O)O)cc2)c(=O)c2ncccc21` [Example 47, N-(2,6-dichlorobenzoyl)-4-[1-methyl-2,4-dioxo-1,2,3,4-tetrahydro-3-(2H)pyrido[3,2-d]pyrimidinyl]-L-phenylalanine]: the IC50 turned out to be 0.0157 µM.

In the case of `Cn1c(=O)n(-c2ccc(C[C@H](NC(=O)c3c(Cl)cccc3Cl)C(=O)O)cc2)c(=O)c2cc(C(N)=O)ccc21` [Example 50], the IC50 was 0.0154 µM.

`Cn1c(=O)n(-c2ccc(C[C@H](NC(=O)c3c(Cl)cccc3Cl)C(=O)O)cc2)c(=O)c2cc(CN3CCOCC3)ccc21` [Example 53]: the IC50 is 0.0233 µM.

`CCN(CC)Cc1ccc2c(c1)c(=O)n(-c1ccc(C[C@H](NC(=O)c3c(Cl)cccc3Cl)C(=O)O)cc1)c(=O)n2C` [Example 55]: the IC50 came to 0.0142 µM.

In the case of `Cn1c(=O)n(-c2ccc(C[C@H](NC(=O)c3c(Cl)cccc3Cl)C(=O)O)cc2)c(=O)c2cc(CN3CCCC3)ccc21` [Example 56], the IC50 amounted to 0.0131 µM.

Take `Cn1c(=O)n(-c2ccc(C[C@H](NC(=O)c3c(Cl)cccc3Cl)C(=O)O)cc2)c(=O)c2cc(CN3CCCCC3)ccc21` [Example 57]: the 50% inhibitory concentration (IC50) was 0.0166 µM.

Consider `Cn1c(=O)n(-c2ccc(C[C@H](NC(=O)c3c(Cl)cccc3Cl)C(=O)O)cc2)c(=O)c2cc(CO)ccc21` [Example 60], for which the IC50 worked out at 0.0255 µM.

Turning to `COCc1ccc2c(=O)n(-c3ccc(C[C@H](NC(=O)c4c(Cl)cccc4Cl)C(=O)O)cc3)c(=O)n(C)c2c1` [Example 63], the concentration for half-maximal inhibition (IC50) came out at 0.0108 µM.

As to `Cn1c(=O)n(-c2ccc(C[C@H](NC(=O)c3c(Cl)cccc3Cl)C(=O)O)cc2)c(=O)c2cnccc21` [Example 64], the IC50 worked out at 0.0123 µM.

For `CCCNCc1ccc2c(c1)c(=O)n(-c1ccc(C[C@H](NC(=O)c3c(Cl)cccc3Cl)C(=O)O)cc1)c(=O)n2C` [Example 98], the IC50 stood at 0.0181 µM.

Consider `CCN(C)c1ccc2c(c1)c(=O)n(-c1ccc(C[C@H](NC(=O)c3c(Cl)cccc3Cl)C(=O)O)cc1)c(=O)n2C` [Example 139, N-(2,6-dichlorobenzoyl)-4-[6-ethylmethylamino-1-methyl-2,4-quinazoline-dione-3-yl]-L-phenylalanine], for which the IC50 came out at 0.0084 µM.

With `CN(C)CCOc1ccc2c(c1)c(=O)n(-c1ccc(C[C@H](NC(=O)c3c(Cl)cccc3Cl)C(=O)O)cc1)c(=O)n2C` [Example 142, N-(2,6-dichlorobenzoyl)-4-[6-(2-dimethylaminoethoxy)-1-methyl-2,4-quinazoline-dione-3-yl]-L-phenylalanine], the IC50 was determined as 0.0147 µM.

For `CCNCc1ccc2c(=O)n(-c3ccc(C[C@H](NC(=O)c4c(Cl)cccc4Cl)C(=O)O)cc3)c(=O)n(C)c2c1` [Example 143, N-(2,6-dichlorobenzoyl)-4-[7-ethylaminomethyl-1-methyl-2,4-quinazoline-dione-3-yl]-L-phenylalanine], the IC50 was found to be 0.007 µM.

In the case of `CNCc1ccc2c(=O)n(-c3ccc(C[C@H](NC(=O)c4c(Cl)cccc4Cl)C(=O)O)cc3)c(=O)n(C)c2c1` [Example 144, N-(2,6-dichlorobenzoyl)-4-[7-methylaminomethyl-1-methyl-2,4-quinazoline-dione-3-yl]-L-phenylalanine], the IC50 came to 0.0049 µM.

Regarding `CCCNCc1ccc2c(=O)n(-c3ccc(C[C@H](NC(=O)c4c(Cl)cccc4Cl)C(=O)O)cc3)c(=O)n(C)c2c1` [Example 145, N-(2,6-dichlorobenzoyl)-4-[1-methyl-7-propylaminomethyl-2,4-quinazoline-dione-3-yl]-L-phenylalanine], the IC50 worked out at 0.0038 µM.

As for `CCN(CC)Cc1ccc2c(=O)n(-c3ccc(C[C@H](NC(=O)c4c(Cl)cccc4Cl)C(=O)O)cc3)c(=O)n(C)c2c1` [Example 146, N-(2,6-dichlorobenzoyl)-4-[1-methyl-7-diethylaminomethyl-2,4-quinazoline-dione-3-yl]-L-phenylalanine], the IC50 was found to be 0.0079 µM.

Regarding `Cc1nccn1-c1cc2c(cc1F)c(=O)n(-c1ccc(C[C@H](NC(=O)c3c(Cl)cccc3Cl)C(=O)O)cc1)c(=O)n2C` [Example 160], the IC50 stood at 0.0094 µM.

In the case of `CCc1nccn1-c1cc2c(cc1F)c(=O)n(-c1ccc(C[C@H](NC(=O)c3c(Cl)cccc3Cl)C(=O)O)cc1)c(=O)n2C` [Example 161], the half-maximal inhibitory concentration (IC50) worked out at 0.0165 µM.

Regarding `Cn1c(=O)n(-c2ccc(C[C@H](NC(=O)c3c(Cl)cccc3Cl)C(=O)O)cc2)c(=O)c2cc(CN)ccc21` [Example 191], the IC50 was determined as 0.0129 µM.
